According to patent publication US20130345199A1, “1-[M-CARBOXAMIDO(HETERO)ARYL-METHYL]-PIPERIDINE-4-CARBOXAMIDE DERIVATIVES” (Actelion Pharmaceuticals Ltd., priority 2012, published 2013):

The compounds below were run against T1, CXCR7 (Homo sapiens, UniProt P25106) (assay: PathHunter CHO-K1 CXCR7 b-arrestin assay (agonistic activity)). Conditions: PathHunter CHO-K1 CXCR7 b-arrestin cell line, 90 minutes at 37° C.
T1 construct: host or cells: CHO-K1 (PathHunter CXCR7 b-arrestin cell line, stably transfected)
T1 sequence (P25106 whole entry): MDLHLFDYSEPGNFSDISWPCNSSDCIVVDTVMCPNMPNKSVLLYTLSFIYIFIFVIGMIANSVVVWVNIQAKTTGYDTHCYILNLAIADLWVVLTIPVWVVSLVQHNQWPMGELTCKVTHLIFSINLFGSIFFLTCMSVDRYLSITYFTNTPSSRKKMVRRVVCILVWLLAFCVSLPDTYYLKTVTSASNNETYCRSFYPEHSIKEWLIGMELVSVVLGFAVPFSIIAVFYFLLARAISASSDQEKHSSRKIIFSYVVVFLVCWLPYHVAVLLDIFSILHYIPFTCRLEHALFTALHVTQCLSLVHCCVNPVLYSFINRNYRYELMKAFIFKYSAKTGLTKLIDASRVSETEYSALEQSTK
Assay type: cell-based
Description: The […] receptor and CXCR7 agonistic activities of the compounds of formula (I) are determined in accordance with the following experimental method.
The assay is using the PathHunter™ CHO-K1 CXCR7 b-arrestin cell line from DiscoverX. The system is based on the Enzyme Fragment Complementation Technology. Two complementing fragments of the b-galactosidase enzyme are expressed within stably transfected cells. The larger portion of b-gal, termed EA for Enzyme Acceptor, is fused to the C-terminus of b-arrestin 2. The smaller fragment, termed ProLink™ tag, is fused to CXCR7 at the C-terminus. Upon activation, b-arrestin is recruited which forces the interaction of ProLink and EA, allowing complementation of the two fragments of b-gal and the formation of a functional enzyme which is capable of hydrolysing the substrate and generating a chemiluminescent signal.
CHO-K1 CXCR7 b-arrestin cells are detached from culture dishes with a cell dissociation buffer (Invitrogen, #13151-014) and collected in growing medium (F12HAMS 90% (v/v)/FCS 10% (v/v), Penicilin/streptomycin 1% (v/v)). 5000 cells per well (in 20 μl) are seeded in a 384 well plate (white-walled, clear bottom; BD Falcon #353274). The plate is incubated at 37° C./5% CO2 for 24 hours. Medium is then replaced by […] (Invitrogen #31985) for 3 to 4 hours. Test compounds are dissolved at 10 mM in DMSO and serially diluted in DMSO to 200× of the final concentration for dose response curves. Compounds are then diluted 1:33.3 in HBSS1X. 5 μl/well of HBSS1X/20 mM HEPES/0.2% BSA are added to the assay plate followed by addition of 5 μl/well of diluted compounds. CXCL12 (Peprotech #300-28A) may be used as a reference agonist. The plate is incubated for 90 minutes at 37° C. 12 μl of detection reagent (Path Hunter Detection Kit, DiscoveRx, #93-0001) is transferred to the assay plate and to the plate is incubated for 1 hour at room temperature. Luminescent signal is read in a microplate reader (FLUOstar Optima, bmg). The calculated EC50 values may fluctuate depending on the daily cellular assay performance. Fluctuations of this kind are known to those skilled in the art.
For “5-Chloro-N-[4-chloro-3-(4-cyclopentylcarbamoyl-piperidin-1-ylmethyl)-phenyl]-nicotinamide [Example 1.227]”, the EC50 was 0.0006 µM.
In the case of `CC(C)(C)NC(=O)C1CCN(Cc2cccc(NC(=O)c3ccc(F)c[n+]3[O-])c2)CC1` [Example 4.007, 5-Fluoro-1-oxy-pyridine-2-carboxylic acid [3-(4-tert-butylcarbamoyl-piperidin-1-ylmethyl)-phenyl]-amide], the EC50 is reported as 0.003 µM.
`O=C(Nc1cccc(CN2CCC(C(=O)NCc3cccc(Cl)c3)CC2)c1)c1ccc(Cl)cc1` [Example 2.027] gave an EC50 of 0.442 µM.
For `Cc1cncc(C(=O)Nc2cccc(CN3CCC(C(=O)N4CCCC4C)CC3)c2)c1` (racemic) [Example 2.050], the EC50 was 0.026 µM.
In the case of `CCCNC(=O)C1CCN(Cc2cccc(NC(=O)c3cccc(C(F)(F)F)n3)c2)CC1` [Example 2.094], the EC50 is reported as 0.001 µM.
“1-[3-(3-Fluoro-benzoylamino)-benzyl]-piperidine-4-carboxylic acid cyclohexylamide [Example 1.103]” was tested, and the EC50 was 0.006 µM.
With `Cc1cncc(C(=O)Nc2cccc(CN3CCC(C(=O)N4CCCC4(C)C)CC3)c2)c1` [Example 2.060] the EC50 was 0.01 µM.
Work on `CC(C)(C)CCNC(=O)C1CCN(Cc2cccc(NC(=O)c3cccc(C(F)(F)F)n3)c2)CC1` [Example 2.082] yielded an EC50 of 0.121 µM.
Work on `CCC(CC)NC(=O)C1CCN(Cc2cccc(NC(=O)c3cncc(C)c3)c2)CC1` [Example 2.040] yielded an EC50 of 0.008 µM.
With `Cc1cncc(C(=O)Nc2cccc(CN3CCC(C(=O)N(C)C)CC3)c2)c1` [Example 2.055] the EC50 was 0.06 µM.
Compound `Cc1cncc(C(=O)Nc2cccc(CN3CCC(C(=O)NC4CCCCC4)C3)c2)c1` (centres unmarked) [Example 2.063] has an EC50 of 0.092 µM.
Compound `Cc1cncc(C(=O)Nc2cccc(CN3CCC(C(=O)NC4CC4)CC3)c2)c1` [Example 2.037] has an EC50 of 0.082 µM.
With `O=C(Nc1ccnc(CN2CCC(C(=O)NC3CCCCC3)CC2)c1)c1ccc(F)cc1` [Example 3.006, 1-[4-(4-Fluoro-benzoylamino)-pyridin-2-ylmethyl]-piperidine-4-carboxylic acid cyclohexylamide] the EC50 was 0.056 µM.
With `O=C(Nc1cccc(CN2CCC(C(=O)NC3CCC(F)(F)CC3)CC2)c1)c1ccc(Cl)cc1` [Example 2.014] the EC50 was 0.002 µM.
`COC(C)CNC(=O)C1CCN(Cc2cccc(NC(=O)c3cccc(C(F)(F)F)n3)c2)CC1` (centres unmarked) [Example 2.093] gave an EC50 of 0.006 µM.
In the case of `Cc1cncc(C(=O)Nc2cccc(CN3CCC(C(=O)NC4CCCC4)CC3)c2)c1` [Example 2.042], the EC50 is reported as 0.005 µM.
`Cc1cncc(C(=O)Nc2csc(CN3CCC(C(=O)NC(C)(C)C)CC3)c2)c1` [Example 3.013, N-[5-(4-tert-Butylcarbamoyl-piperidin-1-ylmethyl)-thiophen-3-yl]-5-methyl-nicotinamide] showed an EC50 of 0.013 µM.
For `CC(C)(C)NC(=O)C1CCN(Cc2cc(NC(=O)Cc3ccccc3Cl)cs2)CC1` [Example 3.011, 1-{4-[2-(2-Chloro-phenyl)-acetylamino]-thiophen-2-ylmethyl}-piperidine-4-carboxylic acid tert-butylamide], the EC50 was 0.028 µM.
With `CC(C)CCNC(=O)C1CCN(Cc2cccc(NC(=O)c3cccc(C(F)(F)F)n3)c2)CC1` [Example 2.081] the EC50 was 0.005 µM.
With `Cc1cncc(C(=O)Nc2cccc(CN3CCC(C(=O)N4CCC(F)(F)CC4)CC3)c2)c1` [Example 2.049] the EC50 was 0.3 µM.
In the case of `Cc1cncc(C(=O)Nc2cccc(CN3CCCC(C(=O)NCC4CC4)CC3)c2)c1` (racemic) [Example 2.084], the EC50 is reported as 0.304 µM.
Work on `Cc1cncc(C(=O)Nc2ccc(F)c(CN3CCC(C(=O)NC(C)(C)C)CC3)c2)c1` [Example 4.019, N-[3-(4-tert-Butylcarbamoyl-piperidin-1-ylmethyl)-4-fluoro-phenyl]-5-methyl-nicotinamide] yielded an EC50 of 0.008 µM.
`CC(C)(C)NC(=O)C1CCCN(Cc2cccc(NC(=O)c3cccc(C(F)(F)F)n3)c2)CC1` (racemic) [Example 2.086] was tested, and the EC50 was 0.01 µM.
